Tested on: HCT116 colorectal cancer cells
Experiment: Cisplatin sensitization assay (96 h cell viability MTS);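 note: compound concentration needed to lower the Cisplatin-alone IC50 by a set fold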
Format: cell-based
Details: 96 h MTS, compound plus Cisplatin
In short: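 Test compound and cisplatin were added together as a full matrix of 2-fold serial dilutions, each from a top final concentration of 10 μM. Cells were incubated 96 h at 37° C in 5% CO2, then viability was read by MTS after a further 1 h incubation.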

Row | SMILES | Cisplatin Sensitization Assay
1 | Nc1nn2cc(F)cnc2c1C(=O)Nc1cncc(F)c1N1CCN2CCOC[C@@H]2C1 [I-N-137, (S)-2-amino-6-fluoro-N-(5-fluoro-4-(hexahydropyrazino[2,1-c][1,4]oxazin-8(1H)-yl)pyridin-3-yl)pyrazolo[1,5-a]pyrimidine-3-carboxamide] | ++ (Compounds with a Cisplatin sensitization value >0.02 μM but <0.2 μM are marked with “++.”)
2 | Nc1nn2cc(F)cnc2c1C(=O)Nc1cnccc1OC1CCN(C2COC2)CC1 [I-O-11, 2-amino-6-fluoro-N-(4-((1-(oxetan-3-yl)piperidin-4-yl)oxy)pyridin-3-yl)pyrazolo[1,5-a]pyrimidine-3-carboxamide] | +++ (Compounds with a Cisplatin sensitization value of <0.02 μM are marked with “+++.”)
3 | Nc1nn2cc(F)cnc2c1C(=O)Nc1cncc(F)c1N1CCN2C(=O)CCC2C1 (centres unmarked) [I-N-163, 2-amino-6-fluoro-N-(5-fluoro-4-(6-oxohexahydropyrrolo[1,2-a]pyrazin-2(1H)-yl)pyridin-3-yl)pyrazolo[1,5-a]pyrimidine-3-carboxamide] | +++ (Compounds with a Cisplatin sensitization value of <0.02 μM are marked with “+++.”)
4 | Nc1nn2cc(F)cnc2c1C(=O)Nc1cncc(F)c1N1CCC(C(=O)N2CC3CCC(C2)N3)CC1 [I-G-44, N-(4-(4-(3,8-diazabicyclo[3.2.1]octane-3-carbonyl)piperidin-1-yl)-5-fluoropyridin-3-yl)-2-amino-6-fluoropyrazolo[1,5-a]pyrimidine-3-carboxamide] | +++ (Compounds with a Cisplatin sensitization value of <0.02 μM are marked with “+++.”)
5 | CN1CCN(c2ccncc2NC(=O)c2c(N)nn3cc(F)cnc23)CC1=O [I-N-209, 2-amino-6-fluoro-N-(4-(4-methyl-3-oxopiperazin-1-yl)pyridin-3-yl)pyrazolo[1,5-a]pyrimidine-3-carboxamide] | +++ (Compounds with a Cisplatin sensitization value of <0.02 μM are marked with “+++.”)
6 | N#CCc1cnc2c(C(=O)Nc3cnccc3N3CCCC3)c(N)nn2c1 [I-N-77, 2-amino-6-(cyanomethyl)-N-(4-(pyrrolidin-1-yl)pyridin-3-yl)pyrazolo[1,5-a]pyrimidine-3-carboxamide] | + (Compounds with a Cisplatin sensitization value >0.2 μM but <5 μM are marked with “+.”)
7 | Cc1cnccc1-c1ccncc1NC(=O)c1c(N)nn2cc(F)cnc12 [I-C-29, 2-amino-6-fluoro-N-(3′-methyl-[4,4′-bipyridin]-3-yl)pyrazolo[1,5-a]pyrimidine-3-carboxamide] | +++ (Compounds with a Cisplatin sensitization value of <0.02 μM are marked with “+++.”)
8 | CC(C)Oc1ccncc1NC(=O)c1c(N)nn2cc(CC#N)cnc12 [I-O-35, 2-amino-6-(cyanomethyl)-N-(4-isopropoxypyridin-3-yl)pyrazolo[1,5-a]pyrimidine-3-carboxamide] | +++ (Compounds with a Cisplatin sensitization value of <0.02 μM are marked with “+++.”)
9 | Nc1nn2cc(F)cnc2c1C(=O)Nc1cncc(C2CC2)c1N1CCN([C@H]2CCOC2)CC1 [I-N-120, (S)-2-amino-N-(5-cyclopropyl-4-(4-(tetrahydrofuran-3-yl)piperazin-1-yl)pyridin-3-yl)-6-fluoropyrazolo[1,5-a]pyrimidine-3-carboxamide] | +++ (Compounds with a Cisplatin sensitization value of <0.02 μM are marked with “+++.”)
10 | Nc1nn2cc(F)cnc2c1C(=O)Nc1cncc(F)c1N1CCN2C(=O)CC[C@@H]2C1 [I-N-186, (R)-2-amino-6-fluoro-N-(5-fluoro-4-(6-oxohexahydropyrrolo[1,2-a]pyrazin-2(1H)-yl)pyridin-3-yl)pyrazolo[1,5-a]pyrimidine-3-carboxamide] | +++ (Compounds with a Cisplatin sensitization value of <0.02 μM are marked with “+++.”)
11 | CN1CCN(c2c(C#N)cncc2NC(=O)c2c(N)nn3cc(F)cnc23)CC1 [I-N-113, 2-amino-N-(5-cyano-4-(4-methylpiperazin-1-yl)pyridin-3-yl)-6-fluoropyrazolo[1,5-a]pyrimidine-3-carboxamide] | + (Compounds with a Cisplatin sensitization value >0.2 μM but <5 μM are marked with “+.”)
12 | Nc1nn2cc(F)cnc2c1C(=O)Nc1cncc(F)c1N1CCC(C(=O)N2CCOCC2)CC1 [I-G-36, 2-amino-6-fluoro-N-(5-fluoro-4-(4-(morpholine-4-carbonyl)piperidin-1-yl)pyridin-3-yl)pyrazolo[1,5-a]pyrimidine-3-carboxamide] | +++ (Compounds with a Cisplatin sensitization value of <0.02 μM are marked with “+++.”)
13 | Nc1nn2cc(F)cnc2c1C(=O)Nc1cncc(F)c1N1CCS(=O)(=O)CC1 [I-N-250, 2-amino-N-(4-(1,1-dioxidothiomorpholino)-5-fluoropyridin-3-yl)-6-fluoropyrazolo[1,5-a]pyrimidine-3-carboxamide] | ++ (Compounds with a Cisplatin sensitization value >0.02 μM but <0.2 μM are marked with “++.”)
14 | CN1CCC(S(=O)(=O)N2CCN(c3ccncc3NC(=O)c3c(N)nn4cc(F)cnc34)CC2)CC1 [I-N-188, 2-amino-6-fluoro-N-(4-(4-((1-methylpiperidin-4-yl)sulfonyl)piperazin-1-yl)pyridin-3-yl)pyrazolo[1,5-a]pyrimidine-3-carboxamide] | +++ (Compounds with a Cisplatin sensitization value of <0.02 μM are marked with “+++.”)
15 | Nc1nn2cc(Cl)cnc2c1C(=O)Nc1cnccc1C1CCN(C2COC2)CC1 [I-C-11, 2-amino-6-chloro-N-(4-(1-(oxetan-3-yl)piperidin-4-yl)pyridin-3-yl)pyrazolo[1,5-a]pyrimidine-3-carboxamide] | +++ (Compounds with a Cisplatin sensitization value of <0.02 μM are marked with “+++.”)
16 | Nc1nn2cc(F)cnc2c1C(=O)Nc1cnccc1N1CCCCCC1 [I-N-264, 2-amino-N-(4-(azepan-1-yl)pyridin-3-yl)-6-fluoropyrazolo[1,5-a]pyrimidine-3-carboxamide] | + (Compounds with a Cisplatin sensitization value >0.2 μM but <5 μM are marked with “+.”)
17 | Nc1nn2cc(F)cnc2c1C(=O)Nc1cnccc1N1CCN2CCC1CC2 [I-N-18, N-(4-(1,4-diazabicyclo[3.2.2]nonan-4-yl)pyridin-3-yl)-2-amino-6-fluoropyrazolo[1,5-a]pyrimidine-3-carboxamide] | ++ (Compounds with a Cisplatin sensitization value >0.02 μM but <0.2 μM are marked with “++.”)
18 | Nc1nn2cc(Cl)cnc2c1C(=O)Nc1cnccc1N1CCCC(N)C1 (centres unmarked) [I-N-55, 2-amino-N-(4-(3-aminopiperidin-1-yl)pyridin-3-yl)-6-chloropyrazolo[1,5-a]pyrimidine-3-carboxamide] | ++ (Compounds with a Cisplatin sensitization value >0.02 μM but <0.2 μM are marked with “++.”)
19 | CN1C(=O)CCC12CCN(c1ccncc1NC(=O)c1c(N)nn3cc(F)cnc13)CC2 [I-N-235, 2-amino-6-fluoro-N-(4-(1-methyl-2-oxo-1,8-diazaspiro[4.5]decan-8-yl)pyridin-3-yl)pyrazolo[1,5-a]pyrimidine-3-carboxamide] | ++ (Compounds with a Cisplatin sensitization value >0.02 μM but <0.2 μM are marked with “++.”)
20 | Nc1nn2cc(F)cnc2c1C(=O)Nc1cnccc1N1CCC(C(=O)N2CC3(CCO3)C2)CC1 [I-G-90, N-(4-(4-(1-oxa-6-azaspiro[3.3]heptane-6-carbonyl)piperidin-1-yl)pyridin-3-yl)-2-amino-6-fluoropyrazolo[1,5-a]pyrimidine-3-carboxamide] | +++ (Compounds with a Cisplatin sensitization value of <0.02 μM are marked with “+++.”)
21 | CN1CCN(C(=O)c2ccc(-c3c(F)cncc3NC(=O)c3c(N)nn4cc(F)cnc34)cc2)CC1 [I-C-43, 2-amino-6-fluoro-N-(5-fluoro-4-(4-(4-methylpiperazine-1-carbonyl)phenyl)pyridin-3-yl)pyrazolo[1,5-a]pyrimidine-3-carboxamide] | +++ (Compounds with a Cisplatin sensitization value of <0.02 μM are marked with “+++.”)
22 | COC1CN(C2CCN(c3ccncc3NC(=O)c3c(N)nn4cc(Cl)cnc34)CC2)C1 [I-N-107, 2-amino-6-chloro-N-(4-(4-(3-methoxyazetidin-1-yl)piperidin-1-yl)pyridin-3-yl)pyrazolo[1,5-a]pyrimidine-3-carboxamide] | +++ (Compounds with a Cisplatin sensitization value of <0.02 μM are marked with “+++.”)
23 | Nc1nn2cc(F)cnc2c1C(=O)Nc1cncc(F)c1N1CCN(C2COC2)CC1 [I-N-13, 2-amino-6-fluoro-N-(5-fluoro-4-(4-(oxetan-3-yl)piperazin-1-yl)pyridin-3-yl)pyrazolo[1,5-a]pyrimidine-3-carboxamide] | +++ (Compounds with a Cisplatin sensitization value of <0.02 μM are marked with “+++.”)
24 | Nc1nn2cc(F)cnc2c1C(=O)Nc1cnccc1-c1ccccn1 [I-C-60, N-([2,4′-bipyridin]-3′-yl)-2-amino-6-fluoropyrazolo[1,5-a]pyrimidine-3-carboxamide] | ++ (Compounds with a Cisplatin sensitization value >0.02 μM but <0.2 μM are marked with “++.”)
25 | CN(C)CCOc1cc(Cl)ncc1NC(=O)c1c(N)nn2cc(Cl)cnc12 [I-O-68, 2-amino-6-chloro-N-(6-chloro-4-(2-(dimethylamino)ethoxy)pyridin-3-yl)pyrazolo[1,5-a]pyrimidine-3-carboxamide] | ++ (Compounds with a Cisplatin sensitization value >0.02 μM but <0.2 μM are marked with “++.”)
26 | CN(C)C1CN(C(=O)C2CCN(c3c(F)cncc3NC(=O)c3c(N)nn4cc(F)cnc34)CC2)C1 [I-G-22, 2-amino-N-(4-(4-(3-(dimethylamino)azetidine-1-carbonyl)piperidin-1-yl)-5-fluoropyridin-3-yl)-6-fluoropyrazolo[1,5-a]pyrimidine-3-carboxamide] | +++ (Compounds with a Cisplatin sensitization value of <0.02 μM are marked with “+++.”)

Reference: patent publication US10787452B2 (Vertex Pharmaceuticals Incorporated, priority 2012, dated 2020)
